In PubChem BioAssay AID192 (DTP/NCI, 2004):
Where “and” joins values, the source holds several entries; their conditions need not be identical. Equal values may be shown once. Toxic doses and inconclusive results are not listed. Rule for the calls: active = survival T/C of 150% or more; inactive = T/C below 125% in these data.

Tested on: BDF1 mice, B16 melanoma ip, median survival T/C
Assay: NCI In Vivo Anticancer Drug Screen. Data for tumor model B16 Melanoma (intraperitoneal) in B6D2F1 (BDF1) mice
Conditions: endpoint: median survival time, higher = longer survival
How it was run: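 Each result divides a survival or tumor-size measurement in the compound-treated group by the same measurement in the vehicle group.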

[1] = dose: 100.0 mg/kg/injection, schedule: Q01DX009 (ip), vehicle: saline with Tween-80
[2] = dose: 200.0 mg/kg/injection, schedule: Q01DX009 (ip), vehicle: saline with Tween-80
[3] = dose: 400.0 mg/kg/injection, schedule: Q01DX009 (ip), vehicle: saline with Tween-80
[4] = dose: 12.5 mg/kg/injection, schedule: Q01DX009 (ip), vehicle: saline
[5] = dose: 25.0 mg/kg/injection, schedule: Q01DX009 (ip), vehicle: saline
[6] = dose: 50.0 mg/kg/injection, schedule: Q01DX009 (ip), vehicle: saline
[7] = dose: 100.0 mg/kg/injection, schedule: Q01DX009 (ip), vehicle: saline
[8] = dose: 12.5 mg/kg/injection, schedule: Q01DX009 (ip), vehicle: other
[9] = dose: 25.0 mg/kg/injection, schedule: Q01DX009 (ip), vehicle: other
[10] = dose: 50.0 mg/kg/injection, schedule: Q01DX009 (ip), vehicle: other
[11] = dose: 100.0 mg/kg/injection, schedule: Q01DX009 (ip), vehicle: other
[12] = dose: 200.0 mg/kg/injection, schedule: Q01DX009 (ip), vehicle: other
[13] = dose: 200.0 mg/kg/injection, schedule: Q01DX009 (ip), vehicle: saline
[14] = dose: 100.0 mg/kg/injection, schedule: Q01DX009 (ip), vehicle: Klucel (hydroxypropylcellulose) (HPC)
[15] = dose: 200.0 mg/kg/injection, schedule: Q01DX009 (ip), vehicle: Klucel (hydroxypropylcellulose) (HPC)
[16] = dose: 400.0 mg/kg/injection, schedule: Q01DX009 (ip), vehicle: Klucel (hydroxypropylcellulose) (HPC)

Measured: T/C

C[N+](C)(C)CCOC(=O)c1ccccc1
inactive: [1] 91 % of control | [2] 93 % of control | [3] 91 % of control

CCN(CC)CCSC(=S)N1c2ccccc2Sc2ccccc21
inactive: dose: 1.09 mg/kg/injection, schedule: Q01DX009 (ip), vehicle: Klucel (hydroxypropylcellulose) (HPC) 109 % of control | dose: 2.18 mg/kg/injection, schedule: Q01DX009 (ip), vehicle: Klucel (hydroxypropylcellulose) (HPC) 105 % of control | dose: 4.37 mg/kg/injection, schedule: Q01DX009 (ip), vehicle: Klucel (hydroxypropylcellulose) (HPC) 107 % of control | dose: 8.75 mg/kg/injection, schedule: Q01DX009 (ip), vehicle: Klucel (hydroxypropylcellulose) (HPC) 111 % of control | dose: 17.5 mg/kg/injection, schedule: Q01DX009 (ip), vehicle: Klucel (hydroxypropylcellulose) (HPC) 100 % of control

C=C(NC(=O)C(=C)NC(=O)c1csc(C2=NC3c4csc(n4)C4NC(=O)c5csc(n5)C(C(C)(O)C(C)O)NC(=O)C5CSC(=N5)/C(=C/C)NC(=O)C(C(C)O)NC(=O)c5csc(n5)C3(CC2)NC(=O)C(C)NC(=O)C(=C)NC(=O)C(=C)NC(=O)C(C(C)C)NC2C=Cc3c(C(C)O)cc(nc3C2O)C(=O)OC4C)n1)C(N)=O (configuration not stated)
inactive: dose: 3.12 mg/kg/injection, schedule: Q01DX009 (ip), vehicle: saline 114 % of control | dose: 6.25 mg/kg/injection, schedule: Q01DX009 (ip), vehicle: saline 104 % of control and 117 % of control | [4] 109 % of control and 114 % of control | [5] 110 % of control and 120 % of control | [6] 119 % of control and 120 % of control | [7] 123 % of control

Oc1ccc(SCc2ccc(NCc3ccccc3)cc2)cc1
inactive: [8] 92 % of control | dose: 12.5 mg/kg/injection, schedule: Q01DX009 (ip), vehicle: saline + alcohol 105 % of control | [9] 97 % of control | dose: 25.0 mg/kg/injection, schedule: Q01DX009 (ip), vehicle: saline + alcohol 103 % of control | [10] 102 % of control | dose: 50.0 mg/kg/injection, schedule: Q01DX009 (ip), vehicle: saline + alcohol 99 % of control | [11] 104 % of control | dose: 100.0 mg/kg/injection, schedule: Q01DX009 (ip), vehicle: saline + alcohol 107 % of control | [12] 102 % of control | dose: 200.0 mg/kg/injection, schedule: Q01DX009 (ip), vehicle: saline + alcohol 103 % of control | dose: 400.0 mg/kg/injection, schedule: Q01DX009 (ip), vehicle: other 96 % of control | dose: 400.0 mg/kg/injection, schedule: Q01DX009 (ip), vehicle: saline + alcohol 99 % of control

COC1CCCCC1SCSC1CCCCC1OC (configuration not stated)
inactive: [1] 105 % of control | [2] 102 % of control | [3] 105 % of control

Cc1ccc(Nc2c3ccccc3nc3ccccc23)cc1
inactive: dose: 18.0 mg/kg/injection, schedule: Q01DX009 (ip), vehicle: saline with Tween-80 123 % of control | dose: 18.0 mg/kg/injection, schedule: Q04DX003 (ip), vehicle: saline with Tween-80 105 % of control | dose: 37.5 mg/kg/injection, schedule: Q04DX003 (ip), vehicle: saline with Tween-80 110 % of control | dose: 75.0 mg/kg/injection, schedule: Q04DX003 (ip), vehicle: saline with Tween-80 105 % of control

O=C1C(N2CCCCC2)=C(N2CC2)C(=O)C(N2CCCCC2)=C1N1CC1
inactive: dose: 2.5 mg/kg/injection, schedule: Q01DX009 (ip), vehicle: saline 94 % of control and 97 % of control | dose: 5.0 mg/kg/injection, schedule: Q01DX009 (ip), vehicle: saline 121 % of control

C=C1OC(=O)OC1(C)CC(OC)OC (configuration not stated)
inactive: [1] 102 % of control | [2] 113 % of control | [3] 108 % of control

COC(=O)C(CSCc1ccccc1)NC(=O)CCNC(=O)OCc1ccccc1 (configuration not stated)
inactive: [9] 107 % of control | [10] 92 % of control | [11] 97 % of control | [12] 93 % of control

CCCCCCCCCCCCCCCCCCOCC(CO)OC (configuration not stated)
inactive: dose: 25.0 mg/kg/injection, schedule: Q01DX009 (ip), vehicle: saline with Tween-80 102 % of control | dose: 50.0 mg/kg/injection, schedule: Q01DX009 (ip), vehicle: saline with Tween-80 100 % of control | [1] 98 % of control | [2] 92 % of control

CCC[CH2][Sn]1([CH2]CCC)[O]C(=O)C[S]1
inactive: dose: 1.0 mg/kg/injection, schedule: Q01DX009 (ip), vehicle: saline with Tween-80 103 % of control | dose: 2.0 mg/kg/injection, schedule: Q01DX009 (ip), vehicle: saline with Tween-80 101 % of control

C#CC[N+]12CN3CN(CN(C3)C1)C2
inactive: [6] 104 % of control | [7] 100 % of control | [13] 107 % of control

Clc1ccc(/C(=[C](\[Hg]/[C](=C(\c2ccccc2)c2ccc(Cl)cc2)c2ccccc2)c2ccccc2)c2ccccc2)cc1
inactive: [14] 105 % of control | [15] 100 % of control | [16] 94 % of control

COc1cc(NC(=O)CC(C)=O)cc2c(C)cc(=O)n(C)c12
inactive: [14] 96 % of control | [15] 100 % of control | [16] 100 % of control

Cc1cc([N+](=O)[O-])c(N)c([N+](=O)[O-])c1
inactive: [14] 100 % of control | [15] 93 % of control | [16] 100 % of control

CCCCCCCCCCCCCCCCCC[N+](C)(C)c1nc(Cl)nc(Cl)n1
inactive: dose: 3.13 mg/kg/injection, schedule: Q01DX009 (ip), vehicle: other 98 % of control | dose: 6.25 mg/kg/injection, schedule: Q01DX009 (ip), vehicle: other 100 % of control | [8] 99 % of control

N=C(N)Sc1ccccn1
inactive: [4] 95 % of control | dose: 12.5 mg/kg/injection, schedule: Q01DX009 (ip), vehicle: suspension in saline 98 % of control | [5] 97 % of control | dose: 25.0 mg/kg/injection, schedule: Q01DX009 (ip), vehicle: suspension in saline 100 % of control | [6] 100 % of control | dose: 50.0 mg/kg/injection, schedule: Q01DX009 (ip), vehicle: suspension in saline 92 % of control | [7] 98 % of control | dose: 100.0 mg/kg/injection, schedule: Q01DX009 (ip), vehicle: suspension in saline 92 % of control

CC(COC(=O)c1ccccc1)(COC(=O)c1ccccc1)COC(=O)c1ccccc1
inactive: [14] 110 % of control | [15] 107 % of control | [16] 100 % of control

CC(C)=CCC(O)C1=CC(=O)c2c(O)ccc(O)c2C1=O (configuration not stated)
inactive: dose: 1.25 mg/kg/injection, schedule: Q01DX009 (ip), vehicle: Klucel (hydroxypropylcellulose) (HPC) 107 % of control | dose: 2.5 mg/kg/injection, schedule: Q01DX009 (ip), vehicle: Klucel (hydroxypropylcellulose) (HPC) 102 % of control | dose: 5.0 mg/kg/injection, schedule: Q01DX009 (ip), vehicle: Klucel (hydroxypropylcellulose) (HPC) 92 % of control | dose: 10.0 mg/kg/injection, schedule: Q01DX009 (ip), vehicle: Klucel (hydroxypropylcellulose) (HPC) 87 % of control

O=C1NC(O)CCN1C1OC(CO)C(O)C1O (configuration not stated)
inactive: [5] 111 % of control and 124 % of control | [6] 110 % of control and 121 % of control | [7] 102 % of control and 106 % of control | [13] 96 % of control and 120 % of control | dose: 400.0 mg/kg/injection, schedule: Q01DX009 (ip), vehicle: saline 106 % of control and 118 % of control | dose: 800.0 mg/kg/injection, schedule: Q01DX009 (ip), vehicle: saline 105 % of control and 107 % of control

CCOc1ccc(NC(=O)Nc2cccc(Cl)c2)cc1
inactive: [14] 100 % of control | [15] 93 % of control | [16] 96 % of control
